# In ChEMBL document CHEMBL4393697, “Lipophilic efficient phenylthiazoles with potent undecaprenyl pyrophosphatase inhibitory activity” (Eur J Med Chem, 2019):
# Experiments:
# Escherichia coli [1] = test: BActericidal activity against Escherichia coli BW25113 assessed as reduction in bacterial cell growth incubated for 18 to 20 hrs followed by re-plating on tryptic soy agar plates at 37 degC for 18 hrs by broth microdilution assay; assay type: functional
# Escherichia coli [2] = test: Bactericidal activity against Escherichia coli JW55031 harboring deltatolC mutant assessed as reduction in bacterial cell growth incubated for 18 to 20 hrs followed by re-plating on tryptic soy agar plates at 37 degC for 18 hrs by broth microdilution assay; assay type: functional
# Klebsiella pneumoniae [3] = test: Antibacterial activity against Klebsiella pneumoniae BAA-1706 assessed as reduction in bacterial cell growth incubated for 18 to 20 hrs by broth microdilution method; assay type: functional
# Escherichia coli [4] = test: Antibacterial activity against Escherichia coli BW25113 assessed as reduction in bacterial cell growth incubated for 18 to 20 hrs by broth microdilution method; assay type: functional
# Klebsiella pneumoniae [5] = test: Bactericidal activity against Klebsiella pneumoniae BAA-1706 assessed as reduction in bacterial cell growth incubated for 18 to 20 hrs followed by re-plating on tryptic soy agar plates at 37 degC for 18 hrs by broth microdilution assay; assay type: functional
# Acinetobacter baumannii [6] = test: Antibacterial activity against Acinetobacter baumannii ATCC 19606 assessed as reduction in bacterial cell growth incubated for 18 to 20 hrs by broth microdilution method; assay type: functional
# Pseudomonas aeruginosa [7] = test: Antibacterial activity against Pseudomonas aeruginosa ATCC 15442 assessed as reduction in bacterial cell growth incubated for 18 to 20 hrs by broth microdilution method; assay type: functional
# Pseudomonas aeruginosa [8] = test: Bactericidal activity against Pseudomonas aeruginosa ATCC 15442 assessed as reduction in bacterial cell growth incubated for 18 to 20 hrs followed by re-plating on tryptic soy agar plates at 37 degC for 18 hrs by broth microdilution assay; assay type: functional
# Escherichia coli [9] = test: Antibacterial activity against Escherichia coli JW55031 harboring deltatolC mutant assessed as reduction in bacterial cell growth incubated for 18 to 20 hrs by broth microdilution method; assay type: functional
# Acinetobacter baumannii [10] = test: Bactericidal activity against Acinetobacter baumannii ATCC 19606 assessed as reduction in bacterial cell growth incubated for 18 to 20 hrs followed by re-plating on tryptic soy agar plates at 37 degC for 18 hrs by broth microdilution assay; assay type: functional
# Staphylococcus aureus [11] = test: Antibacterial activity against methicillin resistant Staphylococcus aureus USA400 assessed as reduction in bacterial cell growth incubated for 18 to 20 hrs by broth microdilution method; assay type: functional
# Staphylococcus aureus [12] = test: Bactericidal activity against Staphylococcus aureus NRS107 assessed as reduction in bacterial cell growth incubated for 18 to 20 hrs followed by re-plating on tryptic soy agar plates at 37 degC for 18 hrs by broth microdilution assay; assay type: functional
# Enterococcus faecium [13] = test: Bactericidal activity against vancomycin resistant Enterococcus faecium ATCC 700221 assessed as reduction in bacterial cell growth incubated for 18 to 20 hrs followed by re-plating on tryptic soy agar plates at 37 degC for 18 hrs by broth microdilution assay; assay type: functional
# J774 = test: Cytotoxicity against mouse J774 assessed as reduction in cell viability at 16 ug/ml incubated for 24 hrs by MTS assay; assay type: cell-based; settings: j774, 24 h
# Staphylococcus aureus [14] = test: Bactericidal activity against vancomycin resistant Staphylococcus aureus VRS12 assessed as reduction in bacterial cell growth incubated for 18 to 20 hrs followed by re-plating on tryptic soy agar plates at 37 degC for 18 hrs by broth microdilution assay; assay type: functional
# Staphylococcus aureus [15] = test: Antibacterial activity against vancomycin resistant Staphylococcus aureus VRS11a assessed as reduction in bacterial cell growth incubated for 18 to 20 hrs by broth microdilution method; assay type: functional
# Staphylococcus aureus [16] = test: Bactericidal activity against Staphylococcus aureus ATCC 6538 assessed as reduction in bacterial cell growth incubated for 18 to 20 hrs followed by re-plating on tryptic soy agar plates at 37 degC for 18 hrs by broth microdilution assay; assay type: functional
# Streptococcus pneumoniae [17] = test: Antibacterial activity against Methicillin resistant Streptococcus pneumoniae ATCC 700677 assessed as reduction in bacterial cell growth incubated for 18 to 20 hrs by broth microdilution method; assay type: functional
# Staphylococcus aureus [18] = test: Antibacterial activity against vancomycin resistant Staphylococcus aureus VRS12 assessed as reduction in bacterial cell growth incubated for 18 to 20 hrs by broth microdilution method; assay type: functional
# Listeria monocytogenes [19] = test: Antibacterial activity against Listeria monocytogenes ATCC 19111 assessed as reduction in bacterial cell growth incubated for 18 to 20 hrs by broth microdilution method; assay type: functional
# Enterococcus faecalis [20] = test: Bactericidal activity against vancomycin resistant Enterococcus faecalis ATCC 51299 assessed as reduction in bacterial cell growth incubated for 18 to 20 hrs followed by re-plating on tryptic soy agar plates at 37 degC for 18 hrs by broth microdilution assay; assay type: functional
# Staphylococcus aureus [21] = test: Bactericidal activity against vancomycin resistant Staphylococcus aureus VRS11a assessed as reduction in bacterial cell growth incubated for 18 to 20 hrs followed by re-plating on tryptic soy agar plates at 37 degC for 18 hrs by broth microdilution assay; assay type: functional
# [22] = test system: Staphylococcus epidermidis; test: Antibacterial activity against methicillin resistant Staphylococcus epidermidis NRS101 assessed as reduction in bacterial cell growth incubated for 18 to 20 hrs by broth microdilution method; assay type: functional
# Staphylococcus aureus [23] = test: Antibacterial activity against Staphylococcus aureus NRS107 assessed as reduction in bacterial cell growth incubated for 18 to 20 hrs by broth microdilution method; assay type: functional
# [24] = test system: Staphylococcus epidermidis; test: Bactericidal activity against methicillin resistant Staphylococcus epidermidis NRS101 assessed as reduction in bacterial cell growth incubated for 18 to 20 hrs followed by re-plating on tryptic soy agar plates at 37 degC for 18 hrs by broth microdilution assay; assay type: functional
# Staphylococcus aureus [25] = test: Bactericidal activity against vancomycin resistant Staphylococcus aureus VRS10 assessed as reduction in bacterial cell growth incubated for 18 to 20 hrs followed by re-plating on tryptic soy agar plates at 37 degC for 18 hrs by broth microdilution assay; assay type: functional
# Listeria monocytogenes [26] = test: Bactericidal activity against Listeria monocytogenes ATCC 19111 assessed as reduction in bacterial cell growth incubated for 18 to 20 hrs followed by re-plating on tryptic soy agar plates at 37 degC for 18 hrs by broth microdilution assay; assay type: functional
# Enterococcus faecium [27] = test: Antibacterial activity against vancomycin resistant Enterococcus faecium ATCC 700221 assessed as reduction in bacterial cell growth incubated for 18 to 20 hrs by broth microdilution method; assay type: functional
# Staphylococcus aureus [28] = test: Antibacterial activity against methicillin-resistant Staphylococcus aureus USA300 assessed as reduction in bacterial cell growth incubated for 18 to 20 hrs by broth microdilution method; assay type: functional
# Staphylococcus aureus [29] = test: Antibacterial activity against Staphylococcus aureus ATCC 6538 assessed as reduction in bacterial cell growth incubated for 18 to 20 hrs by broth microdilution method; assay type: functional
# [30] = Solubility of compound in PBS after 2 hrs by turbidity based absorbance analysis; assay type: physicochemical
# Staphylococcus aureus [31] = test: Antibacterial activity against vancomycin resistant Staphylococcus aureus VRS10 assessed as reduction in bacterial cell growth incubated for 18 to 20 hrs by broth microdilution method; assay type: functional
# Streptococcus pneumoniae [32] = test: Bactericidal activity against Cephalosporin resistant Streptococcus pneumoniae ATCC 51916 assessed as reduction in bacterial cell growth incubated for 18 to 20 hrs followed by re-plating on tryptic soy agar plates at 37 degC for 18 hrs by broth microdilution assay; assay type: functional
# Enterococcus faecalis [33] = test: Antibacterial activity against vancomycin resistant Enterococcus faecalis ATCC 51299 assessed as reduction in bacterial cell growth incubated for 18 to 20 hrs by broth microdilution method; assay type: functional
# Streptococcus pneumoniae [34] = test: Bactericidal activity against Methicillin resistant Streptococcus pneumoniae ATCC 700677 assessed as reduction in bacterial cell growth incubated for 18 to 20 hrs followed by re-plating on tryptic soy agar plates at 37 degC for 18 hrs by broth microdilution assay; assay type: functional
# Streptococcus pneumoniae [35] = test: Antibacterial activity against Cephalosporin resistant Streptococcus pneumoniae ATCC 51916 assessed as reduction in bacterial cell growth incubated for 18 to 20 hrs by broth microdilution method; assay type: functional
# Staphylococcus aureus [36] = test: Bactericidal activity against methicillin resistant Staphylococcus aureus NRS119 assessed as reduction in bacterial cell growth incubated for 18 to 20 hrs followed by re-plating on tryptic soy agar plates at 37 degC for 18 hrs by broth microdilution assay; assay type: functional
# Staphylococcus aureus [37] = test: Antibacterial activity against methicillin resistant Staphylococcus aureus NRS119 assessed as reduction in bacterial cell growth incubated for 18 to 20 hrs by broth microdilution method; assay type: functional
# Staphylococcus aureus [38] = test: Bactericidal activity against methicillin-resistant Staphylococcus aureus USA300 assessed as reduction in bacterial cell growth incubated for 18 to 20 hrs followed by re-plating on tryptic soy agar plates at 37 degC for 18 hrs by broth microdilution assay; assay type: functional
molecule,measurement,setting,value
CC[C@H]1OC(=O)[C@H](C)[C@@H](O[C@H]2C[C@@](C)(OC)[C@@H](O)[C@H](C)O2)[C@H](C)[C@@H](O[C@@H]2O[C@H](C)C[C@H](N(C)C)[C@H]2O)[C@](C)(O)C[C@@H](C)C(=O)[C@H](C)[C@@H](O)[C@]1(C)O [ERYTHROMYCIN],MBC,Escherichia coli [1],> 64 µg/mL
same,MBC,Escherichia coli [2],2 µg/mL
same,MIC,Klebsiella pneumoniae [3],64 µg/mL
same,MIC,Escherichia coli [4],32 µg/mL
same,MBC,Klebsiella pneumoniae [5],> 64 µg/mL
same,MIC,Acinetobacter baumannii [6],8 µg/mL
same,MIC,Pseudomonas aeruginosa [7],> 64 µg/mL
same,MBC,Pseudomonas aeruginosa [8],> 64 µg/mL
same,MIC,Escherichia coli [9],1 µg/mL
same,MBC,Acinetobacter baumannii [10],16 µg/mL
C/C(=N\NC(=N)N)c1sc(-c2ccc(C#Cc3ccccc3[N+](=O)[O-])cc2)nc1C,MIC,Staphylococcus aureus [11],> 64 µg/mL
C/C(=N\NC(=N)N)c1sc(-c2ccc(C#Cc3cccs3)cc2)nc1C,MBC,Staphylococcus aureus [12],4 µg/mL
same,MBC,Enterococcus faecium [13],8 µg/mL
same,Activity,J774,Toxic
same,MBC,Staphylococcus aureus [14],16 µg/mL
same,MIC,Staphylococcus aureus [15],1 µg/mL
same,MBC,Staphylococcus aureus [16],2 µg/mL
same,MIC,Streptococcus pneumoniae [17],4 µg/mL
same,MIC,Staphylococcus aureus [18],8 µg/mL
same,MIC,Listeria monocytogenes [19],8 µg/mL
same,MBC,Escherichia coli [1],> 64 µg/mL
same,MBC,Enterococcus faecalis [20],> 64 µg/mL
same,MBC,Escherichia coli [2],> 64 µg/mL
same,MBC,Staphylococcus aureus [21],2 µg/mL
same,MIC,[22],1 µg/mL
same,MIC,Staphylococcus aureus [23],2 µg/mL
same,MIC,Klebsiella pneumoniae [3],> 64 µg/mL
same,MBC,[24],1 µg/mL
same,MBC,Staphylococcus aureus [25],16 µg/mL
same,MBC,Listeria monocytogenes [26],32 µg/mL
same,MIC,Enterococcus faecium [27],4 µg/mL
same,MIC,Escherichia coli [4],> 64 µg/mL
same,MIC,Staphylococcus aureus [28],4 µg/mL
same,MIC,Staphylococcus aureus [29],1 µg/mL
same,MBC,Klebsiella pneumoniae [5],> 64 µg/mL
same,MIC,Acinetobacter baumannii [6],> 64 µg/mL
same,solubility kinetic at 2 h,[30],50 µM
same,MIC,Staphylococcus aureus [31],8 µg/mL
same,MIC,Pseudomonas aeruginosa [7],> 64 µg/mL
same,MBC,Pseudomonas aeruginosa [8],> 64 µg/mL
same,MIC,Escherichia coli [9],64 µg/mL
same,MBC,Streptococcus pneumoniae [32],4 µg/mL
same,MBC,Acinetobacter baumannii [10],> 64 µg/mL
same,MIC,Staphylococcus aureus [11],2 µg/mL
same,MIC,Enterococcus faecalis [33],64 µg/mL
same,MBC,Streptococcus pneumoniae [34],8 µg/mL
same,MIC,Streptococcus pneumoniae [35],4 µg/mL
same,MBC,Staphylococcus aureus [36],4 µg/mL
same,MIC,Staphylococcus aureus [37],2 µg/mL
same,MBC,Staphylococcus aureus [38],8 µg/mL
C/C(=N\NC(=N)N)c1sc(-c2ccc(C#Cc3ccsc3)cc2)nc1C,MIC,Staphylococcus aureus [11],> 64 µg/mL
C/C(=N\NC(=N)N)c1sc(-c2ccc(C#CC3CCCCC3)cc2)nc1C,solubility kinetic at 2 h,[30],2.7 µM
COC(=O)c1ccc(C#Cc2ccc(-c3nc(C)c(/C(C)=N/NC(=N)N)s3)cc2)c(C)c1,MIC,Staphylococcus aureus [11],> 64 µg/mL
C/C(=N\NC(=N)N)c1sc(-c2ccc(C#Cc3cccc(N)c3)cc2)nc1C,MIC,Staphylococcus aureus [11],4 µg/mL
C/C(=N\NC(=N)N)c1sc(-c2ccc(C#Cc3ccccc3O)cc2)nc1C,MIC,Staphylococcus aureus [11],> 64 µg/mL
COLISTIN,MBC,Escherichia coli [1],< 0.5 µg/mL
same,MBC,Escherichia coli [2],< 0.5 µg/mL
same,MIC,Klebsiella pneumoniae [3],< 0.5 µg/mL
same,MIC,Escherichia coli [4],< 0.5 µg/mL
same,MBC,Klebsiella pneumoniae [5],< 0.5 µg/mL
same,MIC,Acinetobacter baumannii [6],< 0.5 µg/mL
same,MIC,Pseudomonas aeruginosa [7],1 µg/mL
same,MBC,Pseudomonas aeruginosa [8],1 µg/mL
same,MIC,Escherichia coli [9],< 0.5 µg/mL
same,MBC,Acinetobacter baumannii [10],< 0.5 µg/mL
COC(=O)c1ccccc1C#Cc1ccc(-c2nc(C)c(/C(C)=N/NC(=N)N)s2)cc1,MIC,Staphylococcus aureus [11],16 µg/mL
C/C(=N\NC(=N)N)c1sc(-c2ccc(C#Cc3ccc(C(=O)O)c(C)c3)cc2)nc1C,MIC,Staphylococcus aureus [11],> 64 µg/mL
CCOC(=O)C#Cc1ccc(-c2nc(C)c(/C(C)=N/NC(=N)N)s2)cc1,MIC,Staphylococcus aureus [11],> 64 µg/mL
C/C(=N\NC(=N)N)c1sc(-c2ccc(C#Cc3ccc(C(N)=S)cc3)cc2)nc1C,MIC,Staphylococcus aureus [11],64 µg/mL
COC(=O)c1cccc(C#Cc2ccc(-c3nc(C)c(/C(C)=N/NC(=N)N)s3)cc2)c1,MIC,Staphylococcus aureus [11],32 µg/mL
C/C(=N\NC(=N)N)c1sc(-c2ccc(C#Cc3ccc(C)cc3)cc2)nc1C,MIC,Staphylococcus aureus [11],32 µg/mL
